Measurements taken from patent publication US20250248979A1, “NOVEL GPX4 INHIBITORS AND USES THEREOF” (THE TRUSTEES OF COLUMBIA UNIVERSITY IN THE CITY OF NEW YORK, priority 2022, published 2025).
Positions count from the first letter of the chain named. pEC50: −log10 of the molar value. ≈ marks a conversion by molar mass, not a printed value. Entries after “also recorded” stand apart in the source; their conditions may differ. Where two headings read alike, the source gives them in different places.

Columns and labels:
[1] = target: panel of 44 targets (GPCRs, ion channels, enzymes, transporters, nuclear receptors)
GPX4 = target: T1, GPX4 (Homo sapiens, UniProt P36969); assay: GPX4 activity assay in cell lysates (NADPH-coupled); assay type: biochemical; design: endogenous in cells; host or cells: A-673 cell lysate; settings: for GPX4% inhibition at 200 (μM): mean ± s.d., n = 3
T1 sequence (P36969 1-170 isoform P36969-2): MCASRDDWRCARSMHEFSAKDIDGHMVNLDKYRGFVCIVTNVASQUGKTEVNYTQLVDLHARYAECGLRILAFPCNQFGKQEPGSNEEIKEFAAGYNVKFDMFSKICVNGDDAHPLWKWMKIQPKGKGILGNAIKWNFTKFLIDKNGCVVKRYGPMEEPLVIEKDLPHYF
Method in brief: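 Native GPX4 in lysates of A-673 cells grown with 20 nM sodium selenite; lysate preincubated with compound 45 min at 37 °C in pH 8.0 buffer with 3 mM GSH, 0.5 mM NADPH and glutathione reductase. Reaction started with phosphatidylcholine hydroperoxide; NADPH consumption followed at 340 nm over 25 min; triplicates.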

in vitro [2] = assay type: in vitro ADME, mouse; settings: mouse, microsomes
Description: (§1) […]. The incubation timepoints measured were 0, 5, 10, 15, 30, and 45 minutes. All samples were prepared in duplicate and analyzed by LC-MS/MS.

in vitro [3] = assay type: in vitro ADME, human; settings: human, microsomes
Description: as §1

[4] = not given; remark: listed apart in the source
[5] = test system: lipid peroxidation in HT-1080 cells; assay: C11-BODIPY lipid peroxidation flow cytometry assay; assay type: cell-based, human; settings: HT-1080 cells, with and without fer-1
HepG2 cells = assay: Cellular dose response assay, HepG2; assay type: cell-based, human
From the text: HT-1080 (human [Homo sapiens] […] fibrosarcoma), A-673 (human [Homo sapiens] […] Ewing's sarcoma), and SK-HEP-1 (human [Homo sapiens] […] hepatic adenocarcinoma), cells were obtained from ATCC. Huh7 (human [Homo sapiens] […] hepatocellular carcinoma), HLF (human [Homo sapiens] […] hepatocellular carcinoma), HepG2 (human [Homo sapiens] […] hepatocellular carcinoma), cells were obtained from the Cancer Cell Bank at Columbia University Irving Medical Center. HT-1080, A-673, Huh-7, and HLF cells were grown in Dulbecco's Modified Eagle Medium (DMEM) supplemented with 10% heat inactivated fetal bovine serum (HI-FBS), 1% non-essential amino acids, and 1% penicillin streptomycin. HepG2 and SK-HEP-1 cells were grown in Eagle's Minimum Essential Medium (EMEM) supplemented with 10% HI-FBS, and 1% penicillin-streptomycin. All cells were cultured at 37° C. and 5% CO2.
HT-1080, HepG2, Huh7, HLF, and SK-HEP-1 cells were seeded into opaque white 384-well plates at 1500 cells per well then incubated at 37° C. with 5% CO2 overnight. The next day, compounds of interest were dissolved in DMSO and 12-point 2-fold dilution series were prepared with and without Fer-1. Cells were treated in triplicate (final DMSO concentration of 0.4% in all wells, including DMSO-only control wells) and incubated for a further 48 hours at 37° C. and 5% CO2. Cell viability was evaluated using CellTiter-Glo (Promega G7573) and luminescence was recorded on a Victor 5 plate reader. Data were analyzed in GraphPad Prism 9 and error bars represent standard deviation values for three technical replicates in a representative experiment.

HT-1080 cells = assay: Cellular dose response assay, HT-1080 with and without Fer-1; assay type: cell-based, human; settings: for ferroptosis induction / potency in HT-1080 cells, result in words: RSL3 as control; for Selectivity: ferroptosis selectivity, HT1080 + Fer-1 vs HT1080
Method in brief: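 1500 cells/well, o/n; 12-pt 2-fold dilns, ±Fer-1 (HT-1080), 0.4% DMSO, n=3 technical; 48 h, 37 °C/5% CO2; CellTiter-Glo lum. Huh7, HLF, HT-1080 grown in DMEM/10% HI-FBS; SK-HEP-1 in EMEM/10% HI-FBS.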

[6] = Kinetic aqueous solubility; settings: aqueous solubility; Table 9
GPX4^U46C = target: T2, GPX4^U46C (Homo sapiens, UniProt P36969, U73C); assay: Microscale thermophoresis (MST) binding; settings: half maximal effective concentration, covalent mechanism
T2 construct: made in house; host or cells: E. coli BL21-Gold (DE3)
T2 sequence (P36969 1-170 isoform P36969-2 U46C): T1 sequence (P36969 1-170 isoform P36969-2) with U46C
Description: The bacterial expression vector pET-15b-His-tagged-c-GPX4^U46C was prepared as previously described (Yang et al. 2016). The C-terminal His-tagged GPX4U46C protein was expressed in E. coli and purified according to a protocol modified from Scheerer et al. 2007. First, pET-15b-His-tagged-c-GPX4^U46C was transformed into XL10-Gold (Agilent #200314) E. coli ultracompetent cells for plasmid DNA production and isolated using QIAprep Spin Miniprep Kit (Qiagen). For protein expression, pET-15b-His-tagged-c-GPX4^U46C was then transformed into BL21-Gold (DE3) E. coli competent cells (Agilent #230132) and plated on LB agar with 100 μg/mL ampicillin. A starter culture was inoculated in 7 mL of LB medium with 100 μg/mL ampicillin using a single colony and allowed to grow in a 37° C. shaker (225 rpm) for 16 hours. 3 mL of the starter culture was added to 1 L of LB medium with 100 μg/mL ampicillin, which was then incubated in a 37° C. shaker (225 rpm) to an OD600 of 0.9. At that point, the incubation temperature was reduced to 15° C. and the culture was allowed to equilibrate for 1 hour. Expression of the recombinant enzyme was induced by addition of isopropyl β-D-1-thiogalactopyranoside (IPTG, 1 mM final concentration) overnight for 12-15 hours shaking at 225 rpm and 15° C. The next morning, cells were harvested by centrifugation at 4000 rpm and 4° C. for 20 minutes. The cell pellet was then frozen at −80° C. for at least 1 hour or until lysis. To lyse the cells, the cell pellet was resuspended with 25 mL of chilled lysis buffer (100 mM Tris pH 8.0, 300 mM NaCl, 20 mM imidazole, 3 mM TCEP, and 2.5 mini tablets of complete Protease Inhibitor Cocktail (Roche-Sigma #11836170001)) then lysed using an Emulsiflex C3 high-pressure homogenizer. To remove cell debris, the lysate was subjected to centrifugation at 10000 rpm and 4° C. for 20 minutes. The supernatant was centrifuged once more at the same conditions, then the clarified lysate was applied onto a 5-mL HisTrap HP column (Cytiva #17-5248-01), washed with 90% Buffer A (100 mM Tris pH 8.0, 300 mM NaCl, 5% glycerol, 3 mM TCEP) 10% Buffer B (Buffer A with 500 mM imidazole), then eluted with a continuous gradient (10-100% Buffer B). The protein was concentrated using Amicon Ultra-15 centrifugal filter units with a 10 kDa molecule weight cutoff (EMD Millipore #UFC901024) then further purified by FPLC on a size exclusion HiLoad Superdex 200 column (Cytiva) in crystallization buffer (20 mM Tris pH 8.0, 300 mM NaCl, 3 mM TCEP). The fractions containing 90-95% pure GPX4 protein, as evaluated by SDS-PAGE, were pooled and concentrated using the same Amicon centrifugal filter units as above to 5 mg/mL. Concentration was determined by Nanodrop. Protein was aliquoted into Eppendorf tubes, flash frozen using liquid nitrogen, and stored at −80° C. until use.
MST experiments were conducted using a Monolith NT.115 (Nanotemper Technologies) according to manufacturer instructions. To label the protein, 90 μL of 200 nM GPX4^U46C was combined with 90 μL of 100 nM RED-tris-NTA dye diluted in PBS buffer with 0.05% Tween 20 (PBST buffer). The mixture was incubated for 30 minutes at room temperature, followed by centrifugation for 10 minutes at 4° C. and 15,000×g. To assess binding of the compounds, a 16-point 2-fold dilution series in PBST buffer was prepared and mixed in a 1:1 ratio with the labeled protein solution for a final volume of 20 μL. The reaction mixture was loaded into standard treated capillary tubes and analyzed with the Monolith NT.115 at 40% LED power and 40% MST power with a laser-on time of 5 seconds. The data were analyzed in MO.Affinity Analysis v2.3 software.

[7] = target: panel of 44 targets (GPCRs, ion channels, enzymes, transporters, nuclear receptors) (Homo sapiens, UniProt P28222); settings: IC50 (M) Reference Compound (EC50 for agonist)
[8] = target: panel of 44 targets (GPCRs, ion channels, enzymes, transporters, nuclear receptors) (Homo sapiens, UniProt P25101); settings: Endothelin ETA (Antagonist); read-out: IC50 (M) Reference Compound (EC50 for agonist)
[9] = target: panel of 44 targets (GPCRs, ion channels, enzymes, transporters, nuclear receptors) (Homo sapiens, UniProt P08913); settings: Adrenergic a2A; RL [3H]-RX821002 5 nM; read-out: IC50 (M) Reference Compound (EC50 for agonist)
[10] = read-out: IC50 (M) Reference Compound (EC50 for agonist)
[11] = HT1080 + Fer-1, read-out: IC50 (uM) HT1080 + Fer-1
[12] = HT1080, without Fer-1, read-out: IC50 (uM) HT1080

Chain of panel of 44 targets (GPCRs, ion channels, enzymes, transporters, nuclear receptors) (Homo sapiens, UniProt P25101) (P25101 21-427): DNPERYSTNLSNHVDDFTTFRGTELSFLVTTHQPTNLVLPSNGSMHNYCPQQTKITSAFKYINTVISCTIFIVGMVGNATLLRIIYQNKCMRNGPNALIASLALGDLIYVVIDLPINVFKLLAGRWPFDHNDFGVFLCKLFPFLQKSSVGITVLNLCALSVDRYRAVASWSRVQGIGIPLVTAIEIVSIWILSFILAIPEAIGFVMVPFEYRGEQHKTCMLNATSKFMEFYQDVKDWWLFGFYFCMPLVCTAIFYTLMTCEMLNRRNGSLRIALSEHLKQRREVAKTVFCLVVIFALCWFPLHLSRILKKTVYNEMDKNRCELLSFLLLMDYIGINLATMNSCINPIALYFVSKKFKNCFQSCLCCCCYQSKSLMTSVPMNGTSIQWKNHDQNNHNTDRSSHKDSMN
Chain of panel of 44 targets (GPCRs, ion channels, enzymes, transporters, nuclear receptors) (Homo sapiens, UniProt P28222) (P28222 whole entry, looked up): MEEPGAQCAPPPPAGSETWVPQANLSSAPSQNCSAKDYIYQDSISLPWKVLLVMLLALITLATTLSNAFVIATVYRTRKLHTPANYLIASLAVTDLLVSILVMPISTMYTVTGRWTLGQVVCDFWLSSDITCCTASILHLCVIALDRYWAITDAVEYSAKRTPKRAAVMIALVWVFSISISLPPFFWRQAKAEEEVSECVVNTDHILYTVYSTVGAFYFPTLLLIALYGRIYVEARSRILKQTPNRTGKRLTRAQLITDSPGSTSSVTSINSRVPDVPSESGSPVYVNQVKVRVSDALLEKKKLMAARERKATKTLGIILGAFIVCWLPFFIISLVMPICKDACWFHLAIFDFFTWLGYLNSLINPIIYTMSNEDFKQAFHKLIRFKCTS
Chain of panel of 44 targets (GPCRs, ion channels, enzymes, transporters, nuclear receptors) (Homo sapiens, UniProt P08913) (P08913 whole entry): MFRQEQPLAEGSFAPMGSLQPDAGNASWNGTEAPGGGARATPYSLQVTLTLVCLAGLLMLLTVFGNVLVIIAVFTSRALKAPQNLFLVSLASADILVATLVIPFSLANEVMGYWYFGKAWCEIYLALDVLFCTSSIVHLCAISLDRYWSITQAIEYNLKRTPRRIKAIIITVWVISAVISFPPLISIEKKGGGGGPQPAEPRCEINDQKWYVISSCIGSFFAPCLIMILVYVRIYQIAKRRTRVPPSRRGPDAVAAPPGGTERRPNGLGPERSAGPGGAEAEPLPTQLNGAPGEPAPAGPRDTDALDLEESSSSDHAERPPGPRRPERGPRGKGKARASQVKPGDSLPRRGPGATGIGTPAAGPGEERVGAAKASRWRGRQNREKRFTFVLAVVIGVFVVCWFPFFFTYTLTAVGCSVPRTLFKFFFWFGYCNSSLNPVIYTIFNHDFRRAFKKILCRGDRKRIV

Clc1ccc(C2CC3CCC2N3)cn1 (stereo not shown) [Epibatidine]
EC50 [1, 10]: 2.5e-09 M

Cn1nc(C(=O)NC(C)(C)CNC(=O)CCl)c2ccc(Br)cc21 [QW-624]
Plasma Stability t1/2 (min) mouse: 685 min | GPX4% inhibition at 2.5 μM (GPX4; generation 2): −9.6 ± 4.4% | Microsome Stability t1/2 (min) mouse (in vitro [2]): 1.2 min | Microsome Stability t1/2 (min) human (in vitro [3]): 8.8 min | Plasma Stability t1/2 (min) human [4]: 142 min | lipid peroxidation (C11-BODIPY), result in words [5]: still active in lipid peroxidation assay

C[C@]12N[C@H](Cc3ccccc31)c1ccccc12 [MK-801]
IC50 [1, 10]: 2.75e-08 M

Cn1c(C(=O)n2ccnc2)cc2ccccc21 [QW-057]
IC50 (HepG2 cells; compounds alone, read-out: IC50 (μM) HEPG2^a): 97.7 µM | IC50 (HepG2 cells; compounds and fer-1 1.0 μM, read-out: IC50 (μM) HEPG2^b): 82.6 µM | fold increase in GPX4 inhibitory activity in comparison to LOC1886 (GPX4; 200 uM): ~2 fold | GPX4% inhibition at 200 (μM) (GPX4): 59.8 ± 12.5% | ferroptosis induction / potency in HT-1080 cells, result in words (HT-1080 cells): no fer-1 rescue was observed | IC50 (HT-1080 cells; compounds alone, read-out: IC50 (μM) HT1080^a): 64 µM | IC50 (HT-1080 cells; compounds and fer-1 1.0 μM, read-out: IC50 (μM) HT1080^b): 64.2 µM | lipid peroxidation (C11-BODIPY), result in words [5]: did not induce lipid peroxidation

CNC1(C)C2CCC(C2)C1(C)C (stereo not shown) [Mecamylamine]
IC50 ([1]; read-out: IC50 (M) Reference Compound): 8.31e-07 M | IC50 [1, 10]: 6.8e-07 M

Cn1nc(C(=O)NC(C)(C)COC(=O)CCl)c2ccc(-c3ccc(N4CCOCC4)c(Cl)c3)cc21 [QW-562]
GPX4 inhibitory activity, result in words (GPX4): slightly higher potencies than their parent compound | GPX4% inhibition at 2.5 μM (GPX4): 77.6 ± 12.0% | GPX4% inhibition at 5 μM (GPX4; 5 μM): 95.8 ± 2.0% | IC50 (HT-1080 cells; [11]): 7.2 µM | IC50 (HT-1080 cells; [12]): 1.1 µM | Selectivity (HT-1080 cells): 6.5 | Plasma Stability t1/2 (min) human (Plasma stability, human): 7.4 min | Plasma Stability t1/2 (min) mouse (Plasma stability, mouse): 5.3 min | Solubility [6]: 7.8 µM (≈ 4.05 µg/mL)

CC(C)(COC(=O)CCl)NC(=O)c1cc2cc(Cl)ccc2[nH]1 [QW-164]
GPX4% inhibition at 200 (μM) (GPX4; generation 1): 53.3 ± 37.8% | pEC50 (GPX4^U46C): 5.68

COc1ccc(NC(=O)c2ccc(-c3ccncc3)c(C)c2)cc1N1CCN(C)CC1 [GR125743]
IC50 [7]: 1.49e-08 M

Cc1cc2c(cc1CC(=O)c1sccc1S(=O)(=O)Nc1onc(C)c1Cl)OCO2 [Sitaxentin]
IC50 [8]: 8.07e-08 M

CCOc1ccc(-c2ccc3c(C(=O)NC(C)(C)COC(=O)CCl)nn(C)c3c2)cc1Cl [QW-655]
GPX4 inhibitory activity, result in words (GPX4): greatest potency; also recorded: slightly higher potencies than their parent compound | GPX4% inhibition at 2.5 μM (GPX4): 106.9 ± 5.6% | IC50 (HT-1080 cells; [11]): 15.6 µM | IC50 (HT-1080 cells; [12]): 0.7 µM | ferroptosis induction / potency in HT-1080 cells, result in words (HT-1080 cells): sub-micromolar GI50 value; also recorded: sub-molar range cellular activities and decreased ferroptosis selectivity | Selectivity (HT-1080 cells): 22.3 | Plasma Stability t1/2 (min) human (Plasma stability, human): 16.8 min | Plasma Stability t1/2 (min) mouse (Plasma stability, mouse): 2.6 min

COC1(C2=NCCN2)COc2ccccc2O1 (stereo not shown) [RX821002]
IC50 [9]: 8.51e-09 M
